Where only a bound is given, the exact number is not on record here.

The assay has as its system AGS cells (KRAS^G12D). In words: Detection of cell proliferation in vitro by MTT/MTS method (cell activity experiment). In kind it is cell-based. Conditions: Homo sapiens, AGS, 72 h, AGS cells; MTT/MTS; 3 days of drug treatment; read-out: AGS IC50. The essentials: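 KRAS G12D AGS cells seeded at 1000 per well, compound added 24 h later, 0.5% final DMSO. Viability read after 3 days of treatment by MTT (solubilised in DMSO) or MTS, 4 h, absorbance 490 nm. IC50 from dose–response curves versus DMSO control.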
Background: Tetrazolium assays rely on reduction of a dye to a coloured formazan, in cell work by metabolically active cells.
On to `C#Cc1cccc2cc(O)cc(-c3ccc4c(N5C[C@H]6CC[C@@H](C5)N6)c(C(F)(F)F)c(OC[C@@]56CCCN5C[C@H](F)C6)nc4c3)c12` [Example 184, 4-(4-((1R,5S)-3,8-diazabicyclo[3.2.1]octan-3-yl)-2-(((2R,7aS)-2-fluorotetrahydro-1H-pyrrolizin-7a(5H)-yl)methoxy)-3-(trifluoromethyl)quinolin-7-yl)-5-ethynylnaphthalen-2-ol], for which the IC50 was greater than 2500 nM.

As for `C#Cc1c(F)ccc2cc(O)cc(-c3ccc4c(N5C[C@H]6CC[C@@H](C5)N6)c(C(F)(F)F)c(OC[C@@]56CCCN5C[C@H](F)C6)nc4c3F)c12` [Example 185, 4-(4-((1R,5S)-3,8-diazabicyclo[3.2.1]octan-3-yl)-8-fluoro-2-(((2R,7aS)-2-fluorotetrahydro-1H-pyrrolizin-7a(5H)-yl)methoxy)-3-(trifluoromethyl)quinolin-7-yl)-5-ethynyl-6-fluoronaphthalen-2-ol], the concentration for half-maximal inhibition (IC50) amounted to 1350 nM.

`CCc1c(F)ccc2cc(O)cc(-c3ccc4c(N5C[C@H]6CC[C@@H](C5)N6)c(C(F)(F)F)c(OC[C@@]56CCCN5C[C@H](F)C6)nc4c3F)c12` [Example 186, 4-(4-((1R,5S)-3,8-diazabicyclo[3.2.1]octan-3-yl)-8-fluoro-2-(((2R,7aS)-2-fluorotetrahydro-1H-pyrrolizin-7a(5H)-yl)methoxy)-3-(trifluoromethyl)quinolin-7-yl)-5-ethyl-6-fluoronaphthalen-2-ol]: the IC50 came out at 1420 nM.

Turning to `Oc1cc(-c2ccc3c(N4C[C@H]5CC[C@@H](C4)N5)c(C(F)(F)F)c(OC[C@@]45CCCN4C[C@H](F)C5)nc3c2F)c2c(F)c(F)ccc2c1` [Example 187, 4-(4-((1R,5S)-3,8-diazabicyclo[3.2.1]octan-3-yl)-8-fluoro-2-(((2R,7aS)-2-fluorotetrahydro-1H-pyrrolizin-7a(5H)-yl)methoxy)-3-(trifluoromethyl)quinolin-7-yl)-5,6-difluoronaphthalen-2-ol], the IC50 was determined as 1410 nM.

As for `C#Cc1c(F)ccc2cc(O)cc(-c3cc4nc(OC[C@@]56CCCN5C[C@H](F)C6)c(C#N)c(N5C[C@H]6CC[C@@H](C5)N6)c4cn3)c12` [Example 188, 4-((1R,5S)-3,8-diazabicyclo[3.2.1]octan-3-yl)-7-(8-ethynyl-7-fluoro-3-hydroxynaphthalen-1-yl)-2-(((2R,7aS)-2-fluorotetrahydro-1H-pyrrolizin-7a(5H)-yl)methoxy)-1,6-naphthyridine-3-carbonitrile], the 50% inhibitory concentration (IC50) was found to be 1550 nM.

On to `C#Cc1cccc2cc(O)cc(-c3ncc4c(N5C[C@H]6CC[C@@H](C5)N6)c(C#N)c(OC[C@@]56CCCN5C[C@H](F)C6)nc4c3F)c12` [Example 189, 4-((1R,5S)-3,8-diazabicyclo[3.2.1]octan-3-yl)-7-(8-ethynyl-3-hydroxynaphthalen-1-yl)-8-fluoro-2-(((2R,7aS)-2-fluorotetrahydro-1H-pyrrolizin-7a(5H)-yl)methoxy)-1,6-naphthyridine-3-carbonitrile], for which the IC50 was found to be 152 nM.

On to `CCc1cccc2cc(O)cc(-c3ncc4c(N5C[C@H]6CC[C@@H](C5)N6)c(C#N)c(OC[C@@]56CCCN5C[C@H](F)C6)nc4c3F)c12` [Example 190, 4-((1R,5S)-3,8-diazabicyclo[3.2.1]octan-3-yl)-7-(8-ethyl-3-hydroxynaphthalen-1-yl)-8-fluoro-2-(((2R,7aS)-2-fluorotetrahydro-1H-pyrrolizin-7a(5H)-yl)methoxy)-1,6-naphthyridine-3-carbonitrile], for which the IC50 was 150 nM.

Regarding `C#Cc1c(F)ccc2cc(O)cc(-c3ncc4c(N5C[C@H]6CC[C@@H](C5)N6)c(C#N)c(OC[C@@]56CCCN5C[C@H](F)C6)nc4c3F)c12` [Example 191, 4-((1R,5S)-3,8-diazabicyclo[3.2.1]octan-3-yl)-7-(8-ethynyl-7-fluoro-3-hydroxynaphthalen-1-yl)-8-fluoro-2-(((2R,7aS)-2-fluorotetrahydro-1H-pyrrolizin-7a(5H)-yl)methoxy)-1,6-naphthyridine-3-carbonitrile], the IC50 worked out at 120 nM.

Turning to `CCc1c(F)ccc2cc(O)cc(-c3ncc4c(N5C[C@H]6CC[C@@H](C5)N6)c(C#N)c(OC[C@@]56CCCN5C[C@H](F)C6)nc4c3F)c12` [Example 192, 4-((1R,5S)-3,8-diazabicyclo[3.2.1]octan-3-yl)-7-(8-ethyl-7-fluoro-3-hydroxynaphthalen-1-yl)-8-fluoro-2-(((2R,7aS)-2-fluorotetrahydro-1H-pyrrolizin-7a(5H)-yl)methoxy)-1,6-naphthyridine-3-carbonitrile], the IC50 amounted to 121 nM.

For the molecule `N#Cc1c(OC[C@@]23CCCN2C[C@H](F)C3)nc2c(F)c(-c3cc(O)cc4ccc(F)c(F)c34)ncc2c1N1C[C@H]2CC[C@@H](C1)N2` [Example 193, 4-((1R,5S)-3,8-diazabicyclo[3.2.1]octan-3-yl)-7-(7,8-difluoro-3-hydroxynaphthalen-1-yl)-8-fluoro-2-(((2R,7aS)-2-fluorotetrahydro-1H-pyrrolizin-7a(5H)-yl)methoxy)-1,6-naphthyridine-3-carbonitrile], the IC50 amounted to 125 nM.

As for `N#Cc1c(OC[C@@]23CCCN2C[C@H](F)C3)nc2c(F)c(-c3cc(O)cc4cccc(F)c34)ncc2c1N1C[C@H]2CC[C@@H](C1)N2` [Example 194, 4-((1R,5S)-3,8-diazabicyclo[3.2.1]octan-3-yl)-8-fluoro-7-(8-fluoro-3-hydroxynaphthalen-1-yl)-2-(((2R,7aS)-2-fluorotetrahydro-1H-pyrrolizin-7a(5H)-yl)methoxy)-1,6-naphthyridine-3-carbonitrile], the IC50 came out at 150 nM.

Consider `C#Cc1c(F)ccc2cc(O)cc(-c3cc4nc(OC[C@@]56CCCN5C[C@H](F)C6)c(C(F)(F)F)c(N5C[C@H]6CC[C@@H](C5)N6)c4cn3)c12` [Example 195, 4-(4-((1R,5S)-3,8-diazabicyclo[3.2.1]octan-3-yl)-2-(((2R,7aS)-2-fluorotetrahydro-1H-pyrrolizin-7a(5H)-yl)methoxy)-3-(trifluoromethyl)-1,6-naphthyridin-7-yl)-5-ethynyl-6-fluoronaphthalen-2-ol], for which the IC50 is greater than 2500 nM.

For `C#Cc1c(F)ccc2cc(O)cc(-c3ncc4c(N5C[C@H]6CC[C@@H](C5)N6)c(C(F)(F)F)c(OC[C@@]56CCCN5C[C@H](F)C6)nc4c3F)c12` [Example 196, 4-(4-((1R,5S)-3,8-diazabicyclo[3.2.1]octan-3-yl)-8-fluoro-2-(((2R,7aS)-2-fluorotetrahydro-1H-pyrrolizin-7a(5H)-yl)methoxy)-3-(trifluoromethyl)-1,6-naphthyridin-7-yl)-5-ethynyl-6-fluoronaphthalen-2-ol], the IC50 is greater than 2500 nM.

Consider `CCc1c(F)ccc2cc(O)cc(-c3ncc4c(N5C[C@H]6CC[C@@H](C5)N6)c(C(F)(F)F)c(OC[C@@]56CCCN5C[C@H](F)C6)nc4c3F)c12` [Example 197, 4-(4-((1R,5S)-3,8-diazabicyclo[3.2.1]octan-3-yl)-8-fluoro-2-(((2R,7aS)-2-fluorotetrahydro-1H-pyrrolizin-7a(5H)-yl)methoxy)-3-(trifluoromethyl)-1,6-naphthyridin-7-yl)-5-ethyl-6-fluoronaphthalen-2-ol], for which the IC50 was greater than 2500 nM.

As for `Oc1cc(-c2ncc3c(N4C[C@H]5CC[C@@H](C4)N5)c(C(F)(F)F)c(OC[C@@]45CCCN4C[C@H](F)C5)nc3c2F)c2c(F)c(F)ccc2c1` [Example 198, 4-(4-((1R,5S)-3,8-diazabicyclo[3.2.1]octan-3-yl)-8-fluoro-2-(((2R,7aS)-2-fluorotetrahydro-1H-pyrrolizin-7a(5H)-yl)methoxy)-3-(trifluoromethyl)-1,6-naphthyridin-7-yl)-5,6-difluoronaphthalen-2-ol], the IC50 was greater than 2500 nM.

On to `Oc1cc(-c2cnc3c(N4C[C@H]5CC[C@@H](C4)N5)nc(OC[C@@]45CCCN4C[C@H](F)C5)nc3c2)c2c(F)c(F)ccc2c1` [Example 199, 4-(4-((1R,5S)-3,8-diazabicyclo[3.2.1]octan-3-yl)-2-(((2R,7aS)-2-fluorotetrahydro-1H-pyrrolizin-7a(5H)-yl)methoxy)pyrido[3,2-d]pyrimidin-7-yl)-5,6-difluoronaphthalen-2-ol], for which the IC50 was greater than 2500 nM.

In the case of `C#Cc1c(F)ccc2cc(O)cc(-c3cnc4c(N5C[C@H]6CC[C@@H](C5)N6)nc(OC[C@@]56CCCN5C[C@H](F)C6)nc4c3)c12` [Example 200, 4-(4-((1R,5S)-3,8-diazabicyclo[3.2.1]octan-3-yl)-2-(((2R,7aS)-2-fluorotetrahydro-1H-pyrrolizin-7a(5H)-yl)methoxy)pyrido[3,2-d]pyrimidin-7-yl)-5-ethynyl-6-fluoronaphthalen-2-ol], the IC50 was greater than 2500 nM.

Consider `CCc1c(F)ccc2cc(O)cc(-c3cnc4c(N5C[C@H]6CC[C@@H](C5)N6)nc(OC[C@@]56CCCN5C[C@H](F)C6)nc4c3)c12` [Example 201, 4-(4-((1R,5S)-3,8-diazabicyclo[3.2.1]octan-3-yl)-2-(((2R,7aS)-2-fluorotetrahydro-1H-pyrrolizin-7a(5H)-yl)methoxy)pyrido[3,2-d]pyrimidin-7-yl)-5-ethyl-6-fluoronaphthalen-2-ol], for which the IC50 is greater than 2500 nM.

Regarding `C#Cc1c(F)ccc2cc(O)cc(N3CCc4c(nc(OC[C@@]56CCCN5C[C@H](F)C6)nc4N4C[C@H]5CC[C@@H](C4)N5)C3)c12` [Example 202, 4-(4-((1R,5S)-3,8-diazabicyclo[3.2.1]octan-3-yl)-2-(((2R,7aS)-2-fluorotetrahydro-1H-pyrrolizin-7a(5H)-yl)methoxy)-5,8-dihydropyrido[3,4-d]pyrimidin-7(6H)-yl)-5-ethynyl-6-fluoronaphthalen-2-ol], the IC50 came out at 7.5 nM.

For `CCc1c(F)ccc2cc(O)cc(N3CCc4c(nc(OC[C@@]56CCCN5C[C@H](F)C6)nc4N4C[C@H]5CC[C@@H](C4)N5)C3)c12` [Example 203, 4-(4-((1R,5S)-3,8-diazabicyclo[3.2.1]octan-3-yl)-2-(((2R,7aS)-2-fluorotetrahydro-1H-pyrrolizin-7a(5H)-yl)methoxy)-5,8-dihydropyrido[3,4-d]pyrimidin-7(6H)-yl)-5-ethyl-6-fluoronaphthalen-2-ol], the half-inhibitory concentration (IC50) came out at 17 nM.

What is called IC50 is the concentration that inhibits the measured activity by half.

These data come from US20240300980A1, “HETEROCYCLIC COMPOUNDS AS KRAS INHIBITOR, AND PREPARATION THEREFOR AND USE THEREOF IN TREATMENT” (SHANGHAI KECHOW PHARMA, INC., priority 2021, published 2024).
